Measured values published in US11318151B2, “Compound pharmaceutical composition for treating skin inflammatory diseases” (Hefei Industrial Pharmaceutical Institute Co., Ltd., priority 2018, dated 2022).

Assays:
[1] = system: Phorbol Ester-Induced Mouse Ear Swelling Model; assay: Phorbol ester-induced mouse ear swelling model; assay type: in vivo, SPF ICR mice; settings: 6 h after modeling; for Right ear (ear thickness): phorbol ester 5 μg/20 μL/ear, drug 20 μL/ear 30 min before and 15 min after modeling, thickness gauge; for Swelling degree: right minus left ear thickness, drug 20 μL/ear in DMSO 30 min before and 15 min after modeling; for Inhibition rate of the swelling: vs. model group, ear thickness
Method: 1. Therapeutic Effects of the Compound Pharmaceutical Composition of the Disclosure on a Phorbol Ester-Induced Mouse Ear Swelling Model
SPF ICR mice, male, 18-22 g, randomly divided into compound groups with different compound ratios and a model group according to body weight, 10 mice for each group. The test drug is dissolved in a 20 μL solvent of DMSO. The specific group numbers are as follows:
(1) Compound groups with different compound ratios
Tofacitinib:crisaborole=2 mg:2 mg/20 μL (dose ratio=1:1; group a); tofacitinib:crisaborole=2 mg:1 mg/20 μL (dose ratio=2:1; group b); tofacitinib:crisaborole=2 mg:0.5 mg/20 μL (dose ratio=4:1; group c); tofacitinib:crisaborole=2 mg:0.25 mg/20 μL (dose ratio=8:1; group d); tofacitinib:crisaborole=2 mg:0.2 mg/20 μL (dose ratio=10:1; group e); tofacitinib:crisaborole=2 mg:0.125 mg/20 μL (dose ratio=16:1; group f); tofacitinib:crisaborole=1 mg: 2 mg/20 μL (dose ratio=1:2; group g); tofacitinib:crisaborole=0.5 mg:2 mg/20 μL (dose ratio=1:4; group h); tofacitinib:crisaborole=0.25 mg:2 mg/20 μL (dose ratio=1:8; group i); tofacitinib:crisaborole=0.2 mg:2 mg/20 μL (dose ratio=1:10; group j); tofacitinib:crisaborole=0.125 mg:2 mg/20 μL (dose ratio=1:16; group k). (2) Model Group (3) Crisaborole (4 mg/20 ul) (4) Tofacitinib (4 mg/20 ul) (5) Blank group: applying with 20 μL DMSO as a solvent for comparison. Experimental Method:
For the mice of each group, 20 ul (5 μg/20 μL/ear) of phorbol ester is applied to the front and back of the right ear for modeling, and 20 μL solvent medium (acetone) is applied to the left ear; except for the model group, the right ears of the mice in each administration group are applied with corresponding drugs 20 μL/ear 30 minutes before and 15 minutes after modeling, respectively. 6 h after modeling, the ear swelling is measured with a thickness gauge as an indicator of inflammation; then, the animals are sacrificed, the ears are cut and punched with a 6 mm punch, the ear pieces are weighed, and the swelling degree (weight) is calculated.

atopic dermatitis = settings: topical 2% tofacitinib, clinical phase II; cited from earlier work

| SMILES | Right ear (ear thickness) [1] | Swelling degree [1] | Inhibition rate of the swelling [1] [%] | itching symptoms in patients (atopic dermatitis) | therapeutic effect on atopic dermatitis (atopic dermatitis) |
| --- | --- | --- | --- | --- | --- |
| N#Cc1ccc(Oc2ccc3c(c2)COB3O)cc1 [Crisaborole, crisaborole] | 43.0 ± 3.7 10^−2 mm | 13.3 ± 3.4^Δ 10^−2 mm | 30.0 | – | – |
| C[C@@H]1CCN(C(=O)CC#N)C[C@@H]1N(C)c1ncnc2[nH]ccc12 [Tofacitinib, tofacitinib] | 41.6 ± 3.4 10^−2 mm | 12.4 ± 3.2^ΔΔ 10^−2 mm | 34.7 | can improve itching symptoms in patients | a certain therapeutic effect on atopic dermatitis |
